Assay results: patent US11001590B2, “Pyrazolopyrimidine derivatives” (BAYER ANIMAL HEALTH GMBH, priority 2016, dated 2021)

Tests used:
[1] = log P by HPLC on reversed phase columns (Method L0; [a] acidic, [b] neutral range)
Procedure: Calibration was done with straight-chain alkan-2-ones (with 3 to 16 carbon atoms) with known log P values (measurement of log P values using retention times with linear interpolation between successive alkanones). Lambda-max-values were determined using UV-spectra from 200 nm to 400 nm and the peak values of the chromatographic signals.

[2] = test system: Dirofilaria immitis microfilariae; experiment: In vitro assay 3: Dirofilaria immitis microfilariae (DIROIM L1), motility; conditions: 72 h, reduction of motility vs negative control, 72 h incubation
C. elegans Slo-1a = C. elegans Slo-1a (Caenorhabditis elegans, UniProt Q95V25); experiment: In vitro assay 1: C. elegans Slo-1a, action at a recombinant C. elegans CHO cell line (membrane potential measurement)
Chain of C. elegans Slo-1a (Q95V25 whole entry): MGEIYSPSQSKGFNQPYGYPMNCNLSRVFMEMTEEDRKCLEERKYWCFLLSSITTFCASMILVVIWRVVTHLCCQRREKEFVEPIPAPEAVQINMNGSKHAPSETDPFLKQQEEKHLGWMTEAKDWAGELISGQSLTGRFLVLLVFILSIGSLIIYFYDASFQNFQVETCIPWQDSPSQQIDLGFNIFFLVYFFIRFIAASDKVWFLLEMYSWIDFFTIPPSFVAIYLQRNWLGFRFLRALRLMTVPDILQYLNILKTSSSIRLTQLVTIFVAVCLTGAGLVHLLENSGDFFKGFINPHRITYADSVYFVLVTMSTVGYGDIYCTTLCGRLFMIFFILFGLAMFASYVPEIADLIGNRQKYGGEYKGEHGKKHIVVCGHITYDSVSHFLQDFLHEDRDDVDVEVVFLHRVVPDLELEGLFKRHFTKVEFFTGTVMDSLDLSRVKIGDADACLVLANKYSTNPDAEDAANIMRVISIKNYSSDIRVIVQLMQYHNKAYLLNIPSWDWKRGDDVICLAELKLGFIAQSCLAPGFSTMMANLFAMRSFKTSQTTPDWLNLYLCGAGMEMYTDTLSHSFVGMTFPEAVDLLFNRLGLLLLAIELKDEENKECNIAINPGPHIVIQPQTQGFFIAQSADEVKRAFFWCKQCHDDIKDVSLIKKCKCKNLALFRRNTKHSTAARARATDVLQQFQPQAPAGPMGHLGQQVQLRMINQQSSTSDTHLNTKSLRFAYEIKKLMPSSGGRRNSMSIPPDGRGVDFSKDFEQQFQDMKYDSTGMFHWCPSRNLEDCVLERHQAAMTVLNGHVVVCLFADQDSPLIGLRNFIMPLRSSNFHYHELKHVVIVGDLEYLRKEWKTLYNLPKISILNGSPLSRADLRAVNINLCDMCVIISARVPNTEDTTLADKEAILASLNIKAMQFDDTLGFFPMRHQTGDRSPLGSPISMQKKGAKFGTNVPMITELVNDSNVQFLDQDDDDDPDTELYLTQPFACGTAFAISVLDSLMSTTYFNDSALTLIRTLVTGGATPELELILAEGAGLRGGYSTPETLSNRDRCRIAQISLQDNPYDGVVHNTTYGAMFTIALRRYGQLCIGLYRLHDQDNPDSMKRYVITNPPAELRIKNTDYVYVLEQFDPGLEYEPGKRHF

Compound | chromatographic logP [1] | EC50 [2] [µg/mL] | EC50 (C. elegans Slo-1a) [nM]
Cc1nn2c(C(C)C)c(C(=O)N[C@H]3CCCc4ccccc43)cnc2c1-c1ccccc1 [Example 175] | 4.94 | < 10 | 63.1
CC(C)c1c(C(=O)N[C@H]2CCOc3ccccc32)cnc2c(-c3cccc(OC(F)(F)F)c3)c(C(F)(F)F)nn12 [Example 137] | 5.31 | < 10 | 25.1
Cc1nn2c(C3CC3)c(C(=O)N[C@H]3CCOc4ccccc43)cnc2c1-c1cc(Cl)cc(Cl)c1 [Example 469] | 4.96 | < 0.1 | 15.8
CC(C)c1c(C(=O)N[C@H]2CCCc3ccccc32)cnc2c(-c3c(F)cccc3F)c(C(F)(F)F)nn12 [Example 138] | 5.06 | < 10 | 316
Cc1nn2c(C(C)C)c(C(=O)N[C@H]3CCOc4ccccc43)cnc2c1-c1cc(F)c(Cl)c(F)c1 [Example 190] | 5.39 | < 1 | 25.1
Cc1ccccc1-c1c(C)nn2c(N3CCOCC3)c(C(=O)N[C@H]3CCOc4ccccc43)cnc12 [Example 536] | 4.18 | < 0.1 | 5.01
Cc1nn2c(C(C)C)c(C(=O)N[C@H]3CCOc4ccccc43)cnc2c1-c1ccc2c(c1F)OCO2 [Example 245] | 4.18 | < 1 | 20
COc1cc(-c2c(C)nn3c(C(C)C)c(C(=O)N[C@H]4CCOc5ccccc54)cnc23)cc(C(F)(F)F)c1 [Example 391] | 5.13 | < 1 | 25.1
Cc1nn2c(C(C)C)c(C(=O)N[C@H]3CCc4ccccc43)cnc2c1-c1ccccc1 [Example 174] | 4.59 | < 0.1 | 15.8
COc1cc(-c2c(C)nn3c(C(C)C)c(C(=O)N[C@H]4CCCc5ccccc54)cnc23)cc(C(F)(F)F)c1 [Example 363] | 5.7 | < 10 | 63.1
CSCc1cccc(-c2c(C)nn3c(C(C)C)c(C(=O)N[C@H]4CCc5ccccc54)cnc23)c1 [Example 388] | 5 | < 1 | 7.94
CCN(CC)Cc1cccc(-c2c(C)nn3c(C(C)C)c(C(=O)N[C@H]4CCc5ccccc54)cnc23)c1 [Example 355] | 2.12 | < 10 | 2510
Cc1nn2c(C(C)C)c(C(=O)N[C@H]3CCc4ccccc43)cnc2c1-c1ccc(Br)cc1 [Example 207] | 5.31 | < 10 | 50.1
Cc1nn2c(C(C)C)c(C(=O)N[C@H]3CCCc4ccccc43)cnc2c1-c1cnn(CC2CC2)c1 [Example 420] | 4.13 | < 10 | 7.94
CCOCc1cccc(-c2c(C)nn3c(C(C)C)c(C(=O)N[C@H]4CCc5ccccc54)cnc23)c1 [Example 370] | 4.86 | < 1 | 15.8
Cc1nn2c(C(C)C)c(C(=O)N[C@H]3CCc4ccccc43)cnc2c1-c1cnn(C(C)C)c1 [Example 398] | 3.77 | < 1 | 20
COc1cccc(-c2c(C)nn3c(C4CC4)c(C(=O)N[C@H]4CCCc5ccccc54)cnc23)c1 [Example 439] | 4.03 | < 0.1 | 6.31
CC(C)c1c(C(=O)N[C@H]2CCOc3ccccc32)cnc2c(-c3c(F)cccc3F)c(C(F)(F)F)nn12 [Example 139] | 4.56 | < 0.1 | 126
CC(C)c1c(C(=O)N[C@H]2CCOc3ccccc32)cnc2c(-c3cc(Cl)cc(Cl)c3)c(S(=O)(=O)C(C)C)nn12 [Example 217] | 4.57 | < 10 | 398
Cc1nn2c(C(C)C)c(C(=O)N[C@H]3CCCc4ccccc43)cnc2c1-c1cccc(N(C)C)c1 [Example 361] | 4.32 | < 1 | 15.8
Cc1nn2c(Cc3ccc(F)cc3)c(C(=O)N[C@H]3CCOc4ccccc43)cnc2c1-c1c(F)cccc1Cl [Example 228] | 4.72 | < 1 | 3160
Cc1nn2c(C(C)C)c(C(=O)N[C@H]3CCOc4ccccc43)cnc2c1-c1cccc2c1OCO2 [Example 266] | 4.02 | < 1 | 2
Cc1nn2c(C3CC3)c(C(=O)N[C@H]3CCOc4ccccc43)cnc2c1-c1cc(Cl)c(F)c(Cl)c1 [Example 476] | 4.95 | < 1 | 6.31
CC(C)c1c(C(=O)N[C@H]2CCc3ccccc32)cnc2c(-c3c(F)cc(F)cc3F)c(C(F)(F)F)nn12 [Example 133] | 5.01 | < 1 | 79.4
